Values quoted from earlier work, collected in patent US9610359B2, “Methods and compositions related to annexin 1-binding compounds” (Burnham Institute for Medical Research, priority 2009, dated 2017).

Legend:
[1] = tested on: carbohydrate-dependent cancer cell colonization to the lung; conditions: synthetic peptide injected intravenously into mice; cited from earlier work
[2] = tested on: annexin 1 (Anxa1) fragment; conditions: cited from earlier work
normal lung = conditions: through pre-mRNA splicing factors; cited from earlier work

Substance: IELLQAR [I-peptide, selectin ligand mimicry peptide]
- cancer cell colonization to the lung [1]: inhibited carbohydrate-dependent cancer cell colonization to the lung
- binding to annexin 1 fragment [2]: bound to an annexin 1 (Anxa1) fragment
- targeting to normal lung (normal lung): also targets to normal lung
